Test results published in PubChem BioAssay (NCI).
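Where inhibition never reached the appropriate level, the endpoint shown equals the highest concentration tested. Otherwise, values were interpolated linearly from a five-concentration, 48-hour dose response in 96-well plates. GI50 marks 50% less growth. TGI is the concentration that stops growth completely.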

Legend:
Assay in all cases: NCI-60 cell line screen, 48 h
A498 renal = test system: A498 renal
IGROV1 ovarian = test system: IGROV1 ovarian
NCI-H460 lung = test system: NCI-H460 lung
OVCAR-3 ovarian = test system: OVCAR-3 ovarian
SF-268 CNS = test system: SF-268 CNS
SK-OV-3 ovarian = test system: SK-OV-3 ovarian
UACC-257 melanoma = test system: UACC-257 melanoma
UO-31 renal = test system: UO-31 renal
COLO 205 colon = test system: COLO 205 colon
HCT-15 colon = test system: HCT-15 colon
SW-620 colon = test system: SW-620 colon
K-562 leukemia = test system: K-562 leukemia

| SMILES | GI50 (A498 renal) [µM] | TGI (A498 renal) [µM] | GI50 (IGROV1 ovarian) [µM] | TGI (IGROV1 ovarian) [µM] | GI50 (NCI-H460 lung) [µM] | TGI (NCI-H460 lung) [µM] | GI50 (OVCAR-3 ovarian) [nM] | TGI (OVCAR-3 ovarian) [µM] | GI50 (SF-268 CNS) [µM] | TGI (SF-268 CNS) [µM] | GI50 (SK-OV-3 ovarian) [µM] | TGI (SK-OV-3 ovarian) [µM] | GI50 (UACC-257 melanoma) [µM] | TGI (UACC-257 melanoma) [µM] | GI50 (UO-31 renal) [nM] | TGI (UO-31 renal) [µM] | TGI (COLO 205 colon) [µM] | TGI (HCT-15 colon) [µM] | TGI (SW-620 colon) [µM] | TGI (K-562 leukemia) [µM] |
| --- | --- | --- | --- | --- | --- | --- | --- | --- | --- | --- | --- | --- | --- | --- | --- | --- | --- | --- | --- | --- |
| O=c1ccc2nc(-c3ccccc3)nn(-c3ccccn3)c-2c1 | 16.6 | 37.3 | 14.1 | 45.4 | 70.2 | > 100 | 1690 | 3.15 | 19 | 41 | 10.3 | 25 | 3.66 | 14.6 | 1450 | 2.81 |  |  |  |  |
| CC(C)c1cc(CN(C)C)c(O)c(C(C)(C)C)c1 |  | 41.3 |  | > 100 |  | 32.3 |  | 31.2 |  | 58.4 |  | > 100 |  | 29.2 |  | 58 | 36.7 | 63.3 | 36.4 |  |
| COC(=O)Nc1nc2cc(OC)c(OC)cc2c(=O)[nH]1 |  | > 100 |  | > 100 |  | > 100 |  | > 100 |  | > 100 |  | > 100 |  | > 100 |  | > 100 | > 100 | > 100 | > 100 | > 100 |
| N=C(c1ccc2ccccc2c1)c1ccccc1Cc1ccccc1 |  | > 100 |  | > 100 |  | > 100 |  | 57.3 |  |  |  | > 100 |  | > 100 |  | > 100 | > 100 | > 100 | > 100 | > 100 |
| NC(=O)C(N)=O |  | > 100 |  |  |  | > 100 |  | > 100 |  | > 100 |  | > 100 |  | > 100 |  | > 100 | > 100 | > 100 | > 100 | > 100 |
| Nc1nc(N)c2c(n1)NC(=O)c1c(c3ccccc3n1Cc1ccc(Cl)cc1)C2 |  | 30.8 |  | > 100 |  | 36.8 |  | 56.5 |  | > 100 |  | 45.4 |  | > 100 |  | > 100 | 30.5 | 35.6 | > 100 | > 100 |
| CC(C)(C)N1C(C(=O)c2ccccc2)C1c1ccccc1 (stereo not drawn) |  |  |  | > 100 |  | > 100 |  | > 100 |  |  |  | > 100 |  | > 100 |  |  | > 100 | > 100 | > 100 | > 100 |
| O=C(CSc1nc2ccccc2s1)c1sc2sc3ccccc3[n+]2c1[O-] |  | > 100 |  | > 100 |  | > 100 |  | > 100 |  | > 100 |  | > 100 |  | > 100 |  | > 100 | > 100 | > 100 | > 100 | > 100 |
| O=C1c2ccccc2C(=O)c2c(Nc3ccc4c5c(cccc35)C(=O)c3ccccc3-4)cccc21 |  | > 100 |  | > 100 |  | > 100 |  | > 100 |  | > 100 |  |  |  | > 100 |  | > 100 |  | > 100 | > 100 | > 100 |
| Nc1c2c(=O)[nH]c(=O)c2c(N)c2c(=O)c3ccccc3c(=O)c12 |  | 2.85 |  | 10.8 |  | 2.52 |  | 4.31 |  | 15.5 |  | 32.9 |  | 3.17 |  | 31.1 | 1.85 | 3.19 | 4.65 | > 45.9 |
| CC(C)(C)OC(=O)c1cnc(Cl)cn1 |  |  |  | 44.7 |  | > 100 |  |  |  | > 100 |  | > 100 |  | > 100 |  | 18.5 | > 100 | 27.5 | > 100 | > 100 |
| C=CC[N+]12CN3CN(CN(C3)C1)C2 |  | 94.1 |  | 66.4 |  | 54.7 |  | > 100 |  | 72.3 |  | > 100 |  | 61.7 |  | 43.7 | 65.9 | 50.9 | > 100 | > 100 |
| C#CCOc1c(C(=O)OCC)c(=O)n(C)c2ccccc12 |  | > 100 |  | > 100 |  | > 100 |  | > 100 |  | > 100 |  | > 100 |  |  |  | > 100 | > 100 | > 100 | > 100 | > 100 |
| COc1ccc(C[C@H](N)C(=O)NC2C(CO)OC(n3cnc4c(N(C)C)ncnc43)C2O)cc1 (stereo partly drawn) |  | 2.48 |  | 2.66 |  | 1.15 |  |  |  | 2.61 |  |  |  | 1.67 |  | 7.89 | 0.302 | 11.9 |  | 1.16 |
